ChEMBL document CHEMBL4033641, “Design, synthesis and anticancer potential of NSC-319745 hydroxamic acid derivatives as DNMT and HDAC inhibitors” (Eur J Med Chem, 2017)
pIC50: −log10 of the molar value.

What was measured:
Histone deacetylase 1 = Histone deacetylase 1 (Homo sapiens, UniProt Q13547); assay: Inhibition of HDAC1 (unknown origin) preincubated for 15 mins followed by substrate addition measured after 60 mins by fluorescence assay
U-937 [1] = assay: Induction of apoptosis in human U937 cells assessed as viable cells at 0.5 uM after 48 hrs by Annexin V-FITC/PI staining based flow cytometry (reference value: 99.6%); format: functional; details: U-937, 48 h, read-out: Activity
U-937 [2] = assay: Induction of apoptosis in human U937 cells assessed as viable cells at 2.5 uM after 48 hrs by Annexin V-FITC/PI staining based flow cytometry (reference value: 99.6%); format: functional; details: U-937, 48 h, read-out: Activity
U-937 [3] = assay: Induction of apoptosis in human U937 cells assessed as necrotic cells at 1 uM after 48 hrs by Annexin V-FITC/PI staining based flow cytometry (reference value: 0%); format: functional
Salmonella typhimurium [4] = assay: Genotoxicity in Salmonella typhimurium TA102 at 50 times IC50 by Ames test; format: toxicity; details: salmonella enterica subsp. enterica serovar typhimurium
Salmonella typhimurium [5] = assay: Genotoxicity in Salmonella typhimurium TA98 at 50 times IC50 by Ames test; format: toxicity; details: salmonella enterica subsp. enterica serovar typhimurium
U-937 [6] = assay: Induction of apoptosis in human U937 cells assessed as necrotic cells at 2.5 uM after 48 hrs by Annexin V-FITC/PI staining based flow cytometry (reference value: 0%); format: functional
HeLa = assay: Antiproliferative activity against human HeLa cells after 72 hrs by MTT assay; format: functional, cell-based
U-937 [7] = assay: Induction of apoptosis in human U937 cells assessed as early apoptotic cells at 1 uM after 48 hrs by Annexin V-FITC/PI staining based flow cytometry (reference value: 0.140%); format: functional
[8] = molecular target: DNMT3A2/3L complex (Homo sapiens) (UniProt Q9Y6K1+Q9UJW3); assay: Inhibition of DNMT3A/3L (unknown origin) at 100 uM using biotinylated DNA oligonucleotides as substrate preincubated for 15 mins followed by substrate/[3H]-SAM addition measured after 4 hrs by liquid scintillation counting analysis; format: protein-complex assay
Chain of DNMT3A2/3L complex (Homo sapiens) (Q9UJW3 whole entry, looked up): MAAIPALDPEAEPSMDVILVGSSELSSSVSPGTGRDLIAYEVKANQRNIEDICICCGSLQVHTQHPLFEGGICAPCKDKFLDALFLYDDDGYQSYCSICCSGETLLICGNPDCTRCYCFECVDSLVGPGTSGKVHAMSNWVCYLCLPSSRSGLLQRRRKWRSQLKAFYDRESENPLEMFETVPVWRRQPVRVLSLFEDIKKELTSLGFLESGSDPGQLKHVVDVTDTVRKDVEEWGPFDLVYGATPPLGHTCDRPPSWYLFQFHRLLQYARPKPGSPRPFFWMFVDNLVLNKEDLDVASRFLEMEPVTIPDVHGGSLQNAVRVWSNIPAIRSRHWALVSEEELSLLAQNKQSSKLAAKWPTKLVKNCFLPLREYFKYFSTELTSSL
Chain of DNMT3A2/3L complex (Homo sapiens) (Q9Y6K1 whole entry, looked up): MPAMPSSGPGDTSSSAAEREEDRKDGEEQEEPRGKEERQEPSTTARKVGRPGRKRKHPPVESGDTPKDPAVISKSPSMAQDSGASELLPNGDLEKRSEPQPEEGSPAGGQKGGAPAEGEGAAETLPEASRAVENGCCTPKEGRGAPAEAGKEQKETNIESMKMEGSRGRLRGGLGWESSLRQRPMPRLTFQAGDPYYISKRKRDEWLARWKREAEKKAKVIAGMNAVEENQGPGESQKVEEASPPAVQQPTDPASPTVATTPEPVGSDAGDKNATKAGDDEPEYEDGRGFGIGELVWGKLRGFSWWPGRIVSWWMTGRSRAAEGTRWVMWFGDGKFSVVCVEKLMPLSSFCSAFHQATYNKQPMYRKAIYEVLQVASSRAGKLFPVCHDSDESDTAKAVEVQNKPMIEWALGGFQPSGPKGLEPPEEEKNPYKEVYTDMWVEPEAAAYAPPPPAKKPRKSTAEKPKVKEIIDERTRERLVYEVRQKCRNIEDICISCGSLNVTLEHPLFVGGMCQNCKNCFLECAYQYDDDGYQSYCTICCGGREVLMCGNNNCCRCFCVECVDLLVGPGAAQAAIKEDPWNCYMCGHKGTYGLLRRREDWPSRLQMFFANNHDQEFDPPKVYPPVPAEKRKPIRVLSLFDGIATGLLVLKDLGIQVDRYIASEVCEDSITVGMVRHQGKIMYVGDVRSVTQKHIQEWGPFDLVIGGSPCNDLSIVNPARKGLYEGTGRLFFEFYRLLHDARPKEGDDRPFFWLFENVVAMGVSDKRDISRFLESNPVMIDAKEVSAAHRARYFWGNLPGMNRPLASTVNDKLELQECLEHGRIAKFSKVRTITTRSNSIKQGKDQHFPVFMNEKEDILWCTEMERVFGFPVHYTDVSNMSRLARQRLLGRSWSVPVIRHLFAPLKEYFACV

K562 [9] = assay: Antiproliferative activity against human K562 cells after 72 hrs by MTT assay; format: functional, cell-based; details: K562, 72 h
U-937 [10] = assay: Antiproliferative activity against human U937 cells after 72 hrs by MTT assay; format: functional, cell-based; details: U-937, 72 h
U-937 [11] = assay: Induction of apoptosis in human U937 cells assessed as necrotic cells at 0.5 uM after 48 hrs by Annexin V-FITC/PI staining based flow cytometry (reference value: 0%); format: functional
U-937 [12] = assay: Induction of apoptosis in human U937 cells assessed as early apoptotic cells at 2.5 uM after 48 hrs by Annexin V-FITC/PI staining based flow cytometry (reference value: 0.140%); format: functional
U-937 [13] = assay: Induction of apoptosis in human U937 cells assessed as late apoptotic cells at 2.5 uM after 48 hrs by Annexin V-FITC/PI staining based flow cytometry (reference value: 0.279%); format: functional
Salmonella typhimurium [14] = assay: Genotoxicity in Salmonella typhimurium TA97 at 50 times IC50 by Ames test; format: toxicity; details: salmonella enterica subsp. enterica serovar typhimurium
U-937 [15] = assay: Induction of apoptosis in human U937 cells assessed as late apoptotic cells at 1 uM after 48 hrs by Annexin V-FITC/PI staining based flow cytometry (reference value: 0.279%); format: functional
[16] = molecular target: DNA (cytosine-5)-methyltransferase 1 (Homo sapiens) (UniProt P26358); assay: Inhibition of DNMT1 (unknown origin) at 100 uM using poly(dI-dC).poly(dI-dC) as substrate preincubated for 15 mins followed by substrate/[3H]-SAM addition measured after 120 mins by liquid scintillation counting analysis
Chain of DNA (cytosine-5)-methyltransferase 1 (Homo sapiens) (P26358 whole entry): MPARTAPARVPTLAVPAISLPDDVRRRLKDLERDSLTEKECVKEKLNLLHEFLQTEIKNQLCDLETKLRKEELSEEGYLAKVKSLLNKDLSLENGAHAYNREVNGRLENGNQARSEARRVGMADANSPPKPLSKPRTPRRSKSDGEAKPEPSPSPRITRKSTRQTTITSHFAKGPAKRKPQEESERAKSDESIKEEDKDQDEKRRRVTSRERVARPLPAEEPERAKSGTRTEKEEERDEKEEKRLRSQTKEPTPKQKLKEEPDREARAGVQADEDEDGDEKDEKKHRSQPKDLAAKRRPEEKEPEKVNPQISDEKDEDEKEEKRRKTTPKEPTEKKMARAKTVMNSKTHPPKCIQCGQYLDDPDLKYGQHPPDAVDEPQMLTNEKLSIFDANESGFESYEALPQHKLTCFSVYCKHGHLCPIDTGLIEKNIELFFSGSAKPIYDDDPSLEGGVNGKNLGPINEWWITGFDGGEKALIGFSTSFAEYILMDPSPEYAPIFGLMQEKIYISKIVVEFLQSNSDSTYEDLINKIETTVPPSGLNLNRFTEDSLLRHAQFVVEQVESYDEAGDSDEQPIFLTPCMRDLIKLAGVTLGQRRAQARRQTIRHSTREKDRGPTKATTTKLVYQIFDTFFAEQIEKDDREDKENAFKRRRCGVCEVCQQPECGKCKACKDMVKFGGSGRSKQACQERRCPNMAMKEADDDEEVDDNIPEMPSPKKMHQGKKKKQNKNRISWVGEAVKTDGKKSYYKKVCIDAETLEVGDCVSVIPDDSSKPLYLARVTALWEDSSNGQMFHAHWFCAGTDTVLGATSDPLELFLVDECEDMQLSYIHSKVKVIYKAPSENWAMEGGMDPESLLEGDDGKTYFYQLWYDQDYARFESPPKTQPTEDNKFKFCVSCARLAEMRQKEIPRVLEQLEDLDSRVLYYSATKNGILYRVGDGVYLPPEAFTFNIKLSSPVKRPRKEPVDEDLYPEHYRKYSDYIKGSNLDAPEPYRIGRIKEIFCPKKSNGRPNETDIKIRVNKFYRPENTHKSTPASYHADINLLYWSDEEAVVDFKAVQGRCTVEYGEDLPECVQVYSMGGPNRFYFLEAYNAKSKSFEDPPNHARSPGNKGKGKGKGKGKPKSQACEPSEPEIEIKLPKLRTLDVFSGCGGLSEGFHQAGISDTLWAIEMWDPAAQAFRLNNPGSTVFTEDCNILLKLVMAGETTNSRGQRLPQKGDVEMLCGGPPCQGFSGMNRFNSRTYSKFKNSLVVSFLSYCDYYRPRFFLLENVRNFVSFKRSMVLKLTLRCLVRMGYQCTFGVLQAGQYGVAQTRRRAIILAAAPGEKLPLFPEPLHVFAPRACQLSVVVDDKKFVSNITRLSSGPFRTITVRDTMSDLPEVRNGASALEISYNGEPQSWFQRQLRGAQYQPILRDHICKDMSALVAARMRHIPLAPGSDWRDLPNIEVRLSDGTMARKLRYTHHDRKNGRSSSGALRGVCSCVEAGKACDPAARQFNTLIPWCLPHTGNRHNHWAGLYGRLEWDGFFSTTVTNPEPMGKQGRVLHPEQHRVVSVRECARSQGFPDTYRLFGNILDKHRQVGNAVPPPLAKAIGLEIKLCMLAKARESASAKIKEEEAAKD

A549 = assay: Antiproliferative activity against human A549 cells after 72 hrs by MTT assay; format: functional, cell-based; details: A549, 72 h
[17] = molecular target: DNMT3B-DNMT3L complex (Homo sapiens) (UniProt Q9UBC3+Q9UJW3); assay: Inhibition of DNMT3B/3L (unknown origin) at 100 uM using biotinylated DNA oligonucleotides as substrate preincubated for 15 mins followed by substrate/[3H]-SAM addition measured after 4 hrs by liquid scintillation counting analysis; format: protein-complex assay
Chain of DNMT3B-DNMT3L complex (Homo sapiens) (Q9UJW3 whole entry, looked up, other chains not shown): as the sequence (Q9UJW3 whole entry, looked up) above

HCT-116 = assay: Antiproliferative activity against human HCT116 cells after 72 hrs by MTT assay; format: functional, cell-based; details: HCT-116, 72 h
U-937 [18] = assay: Induction of apoptosis in human U937 cells assessed as late apoptotic cells at 0.5 uM after 48 hrs by Annexin V-FITC/PI staining based flow cytometry (reference value: 0.279%); format: functional
U-937 [19] = assay: Induction of apoptosis in human U937 cells assessed as early apoptotic cells at 0.5 uM after 48 hrs by Annexin V-FITC/PI staining based flow cytometry (reference value: 0.140%); format: functional
[20] = molecular target: T1, Protein deacetylase HDAC6 (Homo sapiens, UniProt Q9UBN7); assay: Inhibition of HDAC6 (unknown origin) preincubated for 15 mins followed by substrate addition measured after 60 mins by fluorescence assay
T1 sequence (Q9UBN7 whole entry): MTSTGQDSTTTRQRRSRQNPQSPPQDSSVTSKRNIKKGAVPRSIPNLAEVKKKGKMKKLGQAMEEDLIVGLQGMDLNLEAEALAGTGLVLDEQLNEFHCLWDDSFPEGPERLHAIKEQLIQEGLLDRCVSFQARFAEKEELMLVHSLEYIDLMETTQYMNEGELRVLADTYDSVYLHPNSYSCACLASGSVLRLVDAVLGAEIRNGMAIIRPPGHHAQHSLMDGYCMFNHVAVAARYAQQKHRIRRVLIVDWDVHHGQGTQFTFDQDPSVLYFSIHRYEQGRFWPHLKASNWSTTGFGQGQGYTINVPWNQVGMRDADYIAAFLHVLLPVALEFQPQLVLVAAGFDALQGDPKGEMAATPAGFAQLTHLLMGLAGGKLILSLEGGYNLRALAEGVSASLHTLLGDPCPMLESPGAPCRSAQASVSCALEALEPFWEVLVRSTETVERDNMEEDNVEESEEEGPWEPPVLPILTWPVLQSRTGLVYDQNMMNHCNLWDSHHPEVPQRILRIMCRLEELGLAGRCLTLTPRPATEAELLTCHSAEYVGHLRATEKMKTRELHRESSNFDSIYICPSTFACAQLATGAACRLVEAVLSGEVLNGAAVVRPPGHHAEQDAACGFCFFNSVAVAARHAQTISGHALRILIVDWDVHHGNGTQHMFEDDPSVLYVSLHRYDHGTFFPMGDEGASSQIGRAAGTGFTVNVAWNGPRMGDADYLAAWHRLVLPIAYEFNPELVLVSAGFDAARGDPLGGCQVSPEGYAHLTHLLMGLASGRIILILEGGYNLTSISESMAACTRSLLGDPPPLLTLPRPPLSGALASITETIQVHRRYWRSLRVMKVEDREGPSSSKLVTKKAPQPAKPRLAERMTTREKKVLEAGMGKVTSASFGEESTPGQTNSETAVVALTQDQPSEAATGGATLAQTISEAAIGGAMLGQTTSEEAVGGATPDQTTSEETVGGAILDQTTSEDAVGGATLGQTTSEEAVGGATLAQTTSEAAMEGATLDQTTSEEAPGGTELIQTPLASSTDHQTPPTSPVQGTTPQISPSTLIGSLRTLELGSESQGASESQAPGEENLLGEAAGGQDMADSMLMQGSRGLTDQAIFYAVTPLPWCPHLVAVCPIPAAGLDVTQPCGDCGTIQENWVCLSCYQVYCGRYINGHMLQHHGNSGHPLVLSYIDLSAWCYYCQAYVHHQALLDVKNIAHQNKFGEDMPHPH

Salmonella typhimurium [21] = assay: Genotoxicity in Salmonella typhimurium TA1535 at 50 times IC50 by Ames test; format: toxicity; details: salmonella enterica subsp. enterica serovar typhimurium
HepG2 = assay: Antiproliferative activity against human HepG2 cells after 72 hrs by MTT assay; format: functional, cell-based; details: HepG2, 72 h
U-937 [22] = assay: Induction of apoptosis in human U937 cells assessed as viable cells at 1 uM after 48 hrs by Annexin V-FITC/PI staining based flow cytometry (reference value: 99.6%); format: functional; details: U-937, 48 h, read-out: Activity
U-937 [23] = assay: Growth inhibition of human U937 cells at 50 uM after 72 hrs by MTT assay; format: functional; details: U-937, 72 h, read-out: GI
K562 [24] = assay: Growth inhibition of human K562 cells at 50 uM after 72 hrs by MTT assay; format: functional; details: K562, 72 h, read-out: GI

Chain of Histone deacetylase 1 (Q13547 whole entry): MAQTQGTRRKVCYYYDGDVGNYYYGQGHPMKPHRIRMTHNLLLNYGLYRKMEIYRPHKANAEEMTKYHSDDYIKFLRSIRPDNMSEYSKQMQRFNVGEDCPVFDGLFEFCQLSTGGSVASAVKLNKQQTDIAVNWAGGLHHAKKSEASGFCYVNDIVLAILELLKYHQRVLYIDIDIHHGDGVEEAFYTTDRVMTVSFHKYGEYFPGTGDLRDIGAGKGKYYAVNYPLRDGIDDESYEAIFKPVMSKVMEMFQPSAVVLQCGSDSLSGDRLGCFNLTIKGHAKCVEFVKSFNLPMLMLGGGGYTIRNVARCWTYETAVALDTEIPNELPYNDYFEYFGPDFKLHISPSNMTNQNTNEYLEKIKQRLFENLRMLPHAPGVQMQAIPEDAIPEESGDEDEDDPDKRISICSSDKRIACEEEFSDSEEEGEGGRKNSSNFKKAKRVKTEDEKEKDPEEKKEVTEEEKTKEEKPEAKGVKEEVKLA

Row | SMILES | pIC50 (Histone deacetylase 1) | Activity (Salmonella typhimurium [4]) | Activity (Salmonella typhimurium [5]) | inhibition [8] [%] | pIC50 (K562 [9]) | pIC50 (U-937 [10]) | Activity (Salmonella typhimurium [14]) | inhibition [16] [%] | inhibition [17] [%] | pIC50 [20] | Activity (Salmonella typhimurium [21]) | other results
1 | COc1ccc(Cl)cc1C(=O)NCCc1ccc(/C=C/C(=O)NO)cc1 | 7.72 | Non-Toxic | Non-Toxic | 3.98 | 5.56 | 6.72 | Non-Toxic | 39.8 to 40 | 10.6 | 7.92 | Non-Toxic | viability at 0.5 µM (U-937 [1]): 84%; viability at 2.5 µM (U-937 [2]): 0.365%; Activity (U-937 [3]): 0.942%; Activity (U-937 [6]): 0.02%; pIC50 (HeLa): 4.97; Activity (U-937 [7]): 10.1%; Activity (U-937 [11]): 0.02%; Activity (U-937 [12]): 41.8%; Activity (U-937 [13]): 57.8%; Activity (U-937 [15]): 36.4%; pIC50 (A549): 4.90; pIC50 (HCT-116): 5.27; Activity (U-937 [18]): 9.11%; Activity (U-937 [19]): 6.9%; pIC50 (HepG2): 5.27; viability at 1 µM (U-937 [22]): 52.8%
2 | Cc1cc(Nc2ccc(NC(=O)c3ccc(Nc4ccnc5ccccc45)cc3)cc2)nc(N)n1 |  |  |  |  | 5.94 | 5.81 |  |  |  |  |  | 
3 | COc1ccc(Cl)cc1C(=O)NCCc1ccc(CCC(=O)NO)cc1 | 7.14 | Toxic | Non-Toxic | 4.64 to 5 | 5.21 | 5.40 | Non-Toxic | 23.8 to 24 | 8.26 | 7.38 | Non-Toxic | 
4 | O=C(/C=C/c1ccc(CCNC(=O)c2ccc3ncccc3c2)cc1)NO | 8.40 | Non-Toxic | Toxic | 19.1 | 5.50 | 5.90 | Non-Toxic | 22.9 | 50 to 50.1 | 8.28 | Non-Toxic | 
5 | COc1cc(C(=O)NCCc2ccc(/C=C/C(=O)NO)cc2)ccc1O | 8.09 |  |  | 11.2 | 5.29 | 4.97 |  | 27.9 | 15.8 | 7.97 |  | 
6 | O=C(/C=C/c1ccc(CCNC(=O)c2ccc3[nH]cnc3c2)cc1)NO | 8.11 |  |  | 41 to 41.2 | 4.50 |  |  | 47 to 47.4 | 30.8 | 8.33 |  | inhibition of growth at 50 µM (U-937 [23]): 45%
7 | O=C(/C=C/c1ccc(CCNC(=O)c2ccc3c(c2)OCCO3)cc1)NO | 7.95 | Non-Toxic | Non-Toxic | -0.26 | 5.75 | 5.53 | Non-Toxic | 47.9 to 48 | 28 to 28.1 | 7.93 | Non-Toxic | 
8 | COc1ccc(Cl)cc1C(=O)NCCc1cccc(/C=C/C(=O)NO)c1 | 7.46 | Non-Toxic | Non-Toxic | 1.97 | 5.44 | 5.97 | Non-Toxic | 36 to 36.4 | 3.09 | 7.40 | Non-Toxic | 
9 | O=C(/C=C/c1ccc(CCNC(=O)c2c[nH]c3ncccc23)cc1)NO | 7.84 |  |  | 21 | 4.75 | 4.75 |  | 28.1 | 7.23 | 8.08 |  | 
10 | O=C(/C=C/c1ccc(CCNC(=O)c2cncc(F)c2)cc1)NO | 7.59 | Non-Toxic | Non-Toxic | 0.9 | 5.15 | 5.34 | Non-Toxic | 44 to 44.2 | 1.9 | 7.44 | Non-Toxic | 
11 | O=C(/C=C/c1ccc(CCNC(=O)c2ccc3c(c2)OCO3)cc1)NO | 8.14 | Non-Toxic | Non-Toxic | -1.03 | 5.95 | 6.28 | Non-Toxic | 18.4 | 9.89 | 8.15 | Toxic | 
12 | COc1ccc(Cl)cc1C(=O)NCCc1ccc(CCC(=O)O)cc1 |  |  |  | 42 |  |  |  | 34 to 34.1 | 6.11 |  |  | inhibition of growth at 50 µM (K562 [24]): 20%; inhibition of growth at 50 µM (U-937 [23]): 15%
